From PubChem BioAssay (NCI)
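Values below derive from 48-hour exposures of cells grown in 96-well plates, with endpoints linearly interpolated between the two concentrations bracketing the appropriate inhibition level. At the TGI there is no net growth.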

What was measured:
Test in all cases: NCI anticancer screen, dose series, 48 h
A549 NSCLC = tested on: A549 NSCLC
HCC-2998 colon = tested on: HCC-2998 colon
HCT-116 colon = tested on: HCT-116 colon
LOX IMVI melanoma = tested on: LOX IMVI melanoma
MALME-3M melanoma = tested on: MALME-3M melanoma
NCI-H23 lung = tested on: NCI-H23 lung
SK-OV-3 ovarian = tested on: SK-OV-3 ovarian
SW-620 colon = tested on: SW-620 colon
U251 CNS = tested on: U251 CNS
UACC-257 melanoma = tested on: UACC-257 melanoma

| Compound | TGI (A549 NSCLC) | TGI (HCC-2998 colon) | TGI (HCT-116 colon) | TGI (LOX IMVI melanoma) | TGI (MALME-3M melanoma) | TGI (NCI-H23 lung) | TGI (SK-OV-3 ovarian) | TGI (SW-620 colon) | TGI (U251 CNS) | TGI (UACC-257 melanoma) |
| --- | --- | --- | --- | --- | --- | --- | --- | --- | --- | --- |
| Cc1cc(NS(=O)(=O)c2ccc(NC(=O)c3cccc4c(NNc5ccc(S(=O)(=O)N=C(N)N)cc5)c5ccccc5nc34)cc2)no1 | > 100 µM | > 100 µM | > 100 µM | > 100 µM | > 100 µM | > 100 µM | > 100 µM | > 100 µM | 64.7 µM | > 100 µM |
| N/N=C1/C(=N/O)CCc2nonc21 | > 100 µM | > 100 µM | > 100 µM | > 100 µM | > 100 µM | > 100 µM | > 100 µM | > 100 µM | > 100 µM | > 100 µM |
| Cn1c(-c2ccc[se]2)ccc1-c1ccc(CO)[se]1 | > 100 µM | 19.3 µM | > 100 µM | > 64.1 µM | 40.4 µM | > 84.3 µM | 42.5 µM | > 100 µM | 15.8 µM | 0.102 µM |
| Cc1cc2ccccc2n1CC(=O)N1CCCC1 | > 100 µM | > 100 µM | > 100 µM | > 100 µM | > 100 µM | > 100 µM | > 100 µM | > 100 µM | > 100 µM | > 100 µM |
| CC1CCc2c(sc3ncnc(N/N=C/c4ccc(Cl)c(Cl)c4)c23)C1 (stereo not given) | 34.4 µM | > 100 µM | > 100 µM | 54.6 µM | > 100 µM | 79.8 µM | 89.6 µM | > 100 µM | 20 µM | > 100 µM |
| COc1ccc(/C=C2\CC3C4CC=C5C[C@@H](O)CC[C@]5(C)C4CC[C@]3(C)\C2=N\O)cc1OC (stereo not given in full) | > 100 µM | > 100 µM | > 100 µM | > 100 µM | > 100 µM | > 100 µM | > 100 µM | > 100 µM | > 100 µM | > 100 µM |
| CN(C)CCOC(=O)c1ccc(N)cc1 | > 100 µM | 31.4 µM | > 100 µM | > 100 µM | > 100 µM | > 100 µM | > 100 µM | > 100 µM | > 100 µM | 54 µM |
| O=C1OC2(C(F)(F)F)Oc3ccccc3CN2C12CCCCC2 (stereo not given) | > 100 µM | > 100 µM | 82.8 µM | 52.7 µM | 53.2 µM | 95.2 µM | 81.7 µM | > 100 µM | 84.4 µM | 71.4 µM |
| CC(=O)NC1=C(C)C(=O)c2c(nc3n2CCC3O)C1=O (stereo not given) | > 100 µM | > 100 µM | 67.7 µM | > 100 µM | 37.5 µM | > 89.8 µM | > 100 µM | > 100 µM | > 100 µM | > 59.9 µM |
| Cc1cn(CC2=NCCCN2)c(=O)[nH]c1=O | > 100 µM | > 100 µM | > 100 µM | > 100 µM | > 100 µM | > 100 µM | > 100 µM | > 100 µM | > 100 µM | > 100 µM |
| O=C(Nc1c(Cl)cc([N+](=O)[O-])cc1Cl)C(=O)C1C(=O)NC(=S)NC1=O | > 100 µM | > 100 µM | > 100 µM | > 100 µM | > 100 µM | > 100 µM | > 100 µM | > 100 µM | > 100 µM | > 100 µM |
| CCOC(=O)C(NC(=O)CC(C)C)(Nc1ccc(C(F)(F)F)cc1)C(F)(F)F (stereo not given) | > 100 µM | > 100 µM | > 100 µM | > 100 µM | > 100 µM | > 100 µM | > 100 µM | > 100 µM | > 100 µM | > 100 µM |
| CCOC(=O)/C(C#N)=C/c1ccc(CO)o1 | > 100 µM | > 100 µM | > 100 µM | > 100 µM | > 100 µM | > 100 µM | > 100 µM | > 100 µM | > 100 µM | > 100 µM |
| CC1CC[C@@]2(OC1)O[C@H]1C[C@H]3[C@@H]4CC[C@H]5C[C@@H](OC6OC(CO)C(OC7OC(CO)C(OC8OC(CO)C(O)C(OC9OC(C)C(OC%10OC(C)C(O)C(O)C%10O)C(O)C9O)C8OC8OCC(O)C(O)C8O)C(O)C7O)C(O)C6O)CC[C@]5(C)[C@H]4CC(=O)[C@]3(C)[C@H]1[C@@H]2C (stereo not given in full) | 51.3 µM | 32.8 µM | 52.9 µM | 53.5 µM | 41.3 µM | 35.8 µM | 41.6 µM | 42 µM | 33.3 µM | 32.3 µM |
| Cc1ccc(C)c(COCCOCn2cc(Br)c(N)nc2=O)c1 | > 100 µM | > 100 µM | > 100 µM | > 100 µM | > 100 µM | > 100 µM | > 100 µM | > 100 µM | > 100 µM | > 100 µM |
| C=CC(C)(C)N[C@@H](C(=O)N1CCC[C@H]1c1nc(-c2nc(C(=O)OCC=C(C)C)c(C)o2)c(C)o1)C(C)C | > 100 µM | 36 µM | 38.6 µM | > 100 µM | 39 µM | 48.1 µM | 86.8 µM | 53.8 µM | 45.1 µM | 38.4 µM |
| CCCC(CC)c1c(O)c(O)c(C(CC)CCC)c(C(CC)CCC)c1C(CC)CCC (stereo not given) | > 10 µM | > 10 µM | > 10 µM | > 10 µM | > 10 µM | > 10 µM | > 10 µM | > 10 µM | > 10 µM | > 10 µM |
| CC(C)(C)n1c(=O)n(C(=O)C(Cl)(Cl)Cl)n(C(=O)C(Cl)(Cl)Cl)c1=O | > 100 µM | > 100 µM | > 100 µM | > 100 µM | > 100 µM | > 100 µM | > 100 µM | > 100 µM | > 100 µM | > 100 µM |
| CCNC(=O)/C=C/CCC#Cc1ccc(-c2ccc(-c3cccs3)s2)s1 | > 100 µM | > 100 µM | > 100 µM | > 100 µM | > 100 µM | > 100 µM | > 100 µM | > 100 µM | > 100 µM | > 100 µM |
